{"source": "patent CN106749267A", "about": "“新的表皮生长因子受体抑制剂及其应用” (Nanjing Sanhome Pharmaceutical Co Ltd, priority 2015, dated 2017)", "origin": "cited, not measured here", "note": "Where two headings read alike, the source gives them in different places.", "data": [{"compound": "C=CC(=O)Nc1cc(Nc2nccc(-c3cn(C)c4ccccc34)n2)c(OC)cc1N(C)CCN(C)C", "note": "[AZD9291]", "values": [{"measurement": "blood glucose increase side effect", "setting": "in vivo", "value": "一定程度的升高"}]}, {"compound": "C=CC(=O)Nc1cccc(Nc2nc(Nc3ccc(N4CCN(C(C)=O)CC4)cc3OC)ncc2C(F)(F)F)c1", "note": "[Rociletinib]", "values": [{"measurement": "blood glucose increase side effect", "setting": "literature report, hyperglycemia from EGFR TKIs", "value": "一定程度的升高"}]}]}
